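Compound exposure: 48 hours, 5 concentrations, 96-well plates. TGI denotes the concentration required for complete inhibition of growth.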
Assays:
Experiment in all cases: inhibition of tumour cell growth, NCI panel, 48 h
[1] = test system: SK-MEL-2 melanoma
[2] = test system: OVCAR-3 ovarian
[3] = test system: OVCAR-8 ovarian
[4] = test system: NCI-H226 lung
[5] = test system: 786-0 renal
[6] = test system: T-47D breast
[7] = test system: UACC-62 melanoma
[8] = test system: MCF7 breast
[9] = test system: DU-145 prostate
[10] = test system: CAKI-1 renal
[11] = test system: OVCAR-4 ovarian

| Compound | TGI [1] | TGI [2] | TGI [3] | TGI [4] | TGI [5] | TGI [6] | TGI [7] | TGI [8] | TGI [9] | TGI [10] | TGI [11] |
| --- | --- | --- | --- | --- | --- | --- | --- | --- | --- | --- | --- |
| Nc1ccc(-c2nc3cc(F)ccc3s2)cc1Cl | > 100 µM | 45.6 µM | > 100 µM | 5.04 µM | > 100 µM | > 70.1 µM | > 100 µM | 1.35 µM | > 100 µM | > 100 µM | > 100 µM |
| CC1(c2cccs2)CC(c2cccs2)=C(C#N)C(=C(C#N)C#N)N1 (stereo not drawn) | 37.4 µM | 32.1 µM | 42.9 µM | 90 µM | 35 µM | 39.4 µM | 29.6 µM | 39.1 µM | 28.9 µM | 37 µM | 32.3 µM |
| C=C(CCC/C(C)=C/C=C/[C@]1(C)CCCc2ccoc21)CC(=O)O | > 100 µM | > 100 µM | > 100 µM | > 100 µM | > 100 µM | > 100 µM | > 100 µM | > 100 µM | 98.4 µM | > 100 µM | > 100 µM |
| COCC1OC(Sc2ccccc2)C(O)C(OC)C1OC (stereo not drawn) | > 100 µM | > 100 µM | > 100 µM | > 100 µM | > 100 µM | > 100 µM | > 100 µM | > 100 µM | > 100 µM | > 100 µM | > 100 µM |
| O=C(NC(Cc1c[nH]c2ccccc12)C(=O)Nc1ccc(Br)cc1)OCc1ccccc1 (stereo not drawn) | 19.2 µM | 36.6 µM | 30.3 µM | 31.4 µM | 25.2 µM | 53 µM | 22 µM | 29.3 µM | 29.2 µM | 34.6 µM | 23.6 µM |
| COc1ccccc1/C(=N\OCCC(=O)O)c1cccs1 | > 100 µM | > 100 µM | > 100 µM | > 100 µM | > 100 µM | > 100 µM | > 100 µM | > 100 µM | > 100 µM | > 100 µM | > 100 µM |
| CC(=O)c1ccc(NCc2cc(O)ccc2O)cc1 | 57.3 µM | 19.8 µM | 88.1 µM | > 100 µM | 27.7 µM | 63.1 µM | 29.8 µM | > 100 µM | 58 µM | 34.6 µM | 34.4 µM |
| OC1[C@@H]2[C@@H](O)[C@H](O)[C@@H](O)N2C[C@@H]1O (stereo partly drawn) | > 100 µM | > 100 µM | > 100 µM | > 100 µM | > 100 µM | > 100 µM | > 100 µM | > 100 µM | > 100 µM | > 100 µM | > 100 µM |

From PubChem BioAssay (NCI)
